Test results reported in ChEMBL document CHEMBL4334438, “Discovery of novel glycogen synthase kinase-3α inhibitors: Structure-based virtual screening, preliminary SAR and biological evaluation for treatment of acute myeloid leukemia” (Eur J Med Chem, 2019).

Columns and labels:
[1] = target: Serine/threonine-protein kinase Nek7 (Homo sapiens) (UniProt Q8TDX7); assay: Inhibition of recombinant human NEK7 (2 to end residues) assessed as residual activity at 1 uM using FLAKSFGSPNRAYKK as substrate measured after 40 mins in presence of [gamma33P]ATP by scintillation counting method relative to control
[2] = target: Serine/threonine-protein kinase MRCK alpha (Homo sapiens) (UniProt Q5VT25); assay: Inhibition of recombinant human MRCKalpha (1 to 473 residues) assessed as residual activity at 1 uM using KKRNRTLTV as substrate measured after 40 mins in presence of [gamma33P]ATP by scintillation counting method relative to control
[3] = target: Dual specificity tyrosine-phosphorylation-regulated kinase 1B (Homo sapiens) (UniProt Q9Y463); assay: Inhibition of recombinant human DYRK1B assessed as residual activity at 1 uM using RRRFRPASPLRGPPK as substrate at 40 mins in presence of [gamma-33ATP] by scintillation counting based radiometry assay relative to control
[4] = target: Serine/threonine-protein kinase 32A (Homo sapiens) (UniProt Q8WU08); assay: Inhibition of recombinant full-length human STK32A at 1 uM assessed as residual activity at 1 uM using casein as substrate measured after 120 mins in presence of [gamma33P]ATP by scintillation counting method relative to control
[5] = target: CDK4/Cyclin D3 (Homo sapiens) (UniProt P11802+P30281); assay: Inhibition of recombinant full length human CDK4/CyclinD3 assessed as residual activity at 1 uM using Rb fragment as substrate incubated for 40 mins in presence of [gamma-33ATP] by scintillation counting based radiometry assay relative to control; format: protein-complex assay
[6] = target: Dual specificity protein kinase CLK3 (Homo sapiens) (UniProt P49761); assay: Inhibition of recombinant full length human CLK3 assessed as residual activity at 1 uM using ERMRPRKRQGSVR as substrate incubated 40 mins in presence of [gamma-33ATP] by scintillation counting based radiometry assay relative to control
[7] = tested on: Serine/threonine-protein kinase A-Raf (Homo sapiens), P10398 [Y301D,Y302D]; assay: Inhibition of recombinant human A-Raf Y301D/Y302D mutant (273 to end residues) assessed as residual activity at 1 uM using myelin basic protein as substrate incubated for 40 mins in presence of [gamma-33ATP] by scintillation counting based radiometry assay relative to control
Serine/threonine-protein kinase A-Raf (Homo sapiens), P10398 [Y301D,Y302D], sequence (P10398 whole entry Y301D/Y302D, the tested form may be a part): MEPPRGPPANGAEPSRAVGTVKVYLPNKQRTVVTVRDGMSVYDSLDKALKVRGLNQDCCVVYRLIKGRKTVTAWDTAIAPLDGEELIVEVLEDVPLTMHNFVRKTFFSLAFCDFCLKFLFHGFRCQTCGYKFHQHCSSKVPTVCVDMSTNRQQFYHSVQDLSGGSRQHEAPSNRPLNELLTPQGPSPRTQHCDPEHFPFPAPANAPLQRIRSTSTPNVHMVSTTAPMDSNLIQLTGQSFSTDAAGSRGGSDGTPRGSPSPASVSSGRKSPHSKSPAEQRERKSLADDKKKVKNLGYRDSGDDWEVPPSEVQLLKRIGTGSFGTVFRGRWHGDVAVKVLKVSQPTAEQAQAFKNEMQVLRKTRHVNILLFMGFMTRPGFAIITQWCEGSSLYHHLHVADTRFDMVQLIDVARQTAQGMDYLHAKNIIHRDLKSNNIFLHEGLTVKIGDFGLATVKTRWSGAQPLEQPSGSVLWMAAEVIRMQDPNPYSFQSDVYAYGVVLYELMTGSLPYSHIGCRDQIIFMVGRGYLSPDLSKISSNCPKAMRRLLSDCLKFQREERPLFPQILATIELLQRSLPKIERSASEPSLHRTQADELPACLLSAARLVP

[8] = target: Proto-oncogene tyrosine-protein kinase Src (Homo sapiens) (UniProt P12931); assay: Inhibition of human Src (1 to 530 residues) assessed as residual activity at 1 uM using GGEEEEYFELVKKKK as substrate measured after 40 mins in presence of [gamma33P]ATP by scintillation counting method relative to control
[9] = target: Serine/threonine-protein kinase WNK2 (Homo sapiens) (UniProt Q9Y3S1); assay: Inhibition of human WNK2 (166 to 489 residues) assessed as residual activity at 1 uM using myelin basic protein as substrate measured after 40 mins in presence of [gamma33P]ATP by scintillation counting method relative to control
Serine/threonine-protein kinase WNK2 (Homo sapiens), sequence (Q9Y3S1 whole entry, the tested form may be a part): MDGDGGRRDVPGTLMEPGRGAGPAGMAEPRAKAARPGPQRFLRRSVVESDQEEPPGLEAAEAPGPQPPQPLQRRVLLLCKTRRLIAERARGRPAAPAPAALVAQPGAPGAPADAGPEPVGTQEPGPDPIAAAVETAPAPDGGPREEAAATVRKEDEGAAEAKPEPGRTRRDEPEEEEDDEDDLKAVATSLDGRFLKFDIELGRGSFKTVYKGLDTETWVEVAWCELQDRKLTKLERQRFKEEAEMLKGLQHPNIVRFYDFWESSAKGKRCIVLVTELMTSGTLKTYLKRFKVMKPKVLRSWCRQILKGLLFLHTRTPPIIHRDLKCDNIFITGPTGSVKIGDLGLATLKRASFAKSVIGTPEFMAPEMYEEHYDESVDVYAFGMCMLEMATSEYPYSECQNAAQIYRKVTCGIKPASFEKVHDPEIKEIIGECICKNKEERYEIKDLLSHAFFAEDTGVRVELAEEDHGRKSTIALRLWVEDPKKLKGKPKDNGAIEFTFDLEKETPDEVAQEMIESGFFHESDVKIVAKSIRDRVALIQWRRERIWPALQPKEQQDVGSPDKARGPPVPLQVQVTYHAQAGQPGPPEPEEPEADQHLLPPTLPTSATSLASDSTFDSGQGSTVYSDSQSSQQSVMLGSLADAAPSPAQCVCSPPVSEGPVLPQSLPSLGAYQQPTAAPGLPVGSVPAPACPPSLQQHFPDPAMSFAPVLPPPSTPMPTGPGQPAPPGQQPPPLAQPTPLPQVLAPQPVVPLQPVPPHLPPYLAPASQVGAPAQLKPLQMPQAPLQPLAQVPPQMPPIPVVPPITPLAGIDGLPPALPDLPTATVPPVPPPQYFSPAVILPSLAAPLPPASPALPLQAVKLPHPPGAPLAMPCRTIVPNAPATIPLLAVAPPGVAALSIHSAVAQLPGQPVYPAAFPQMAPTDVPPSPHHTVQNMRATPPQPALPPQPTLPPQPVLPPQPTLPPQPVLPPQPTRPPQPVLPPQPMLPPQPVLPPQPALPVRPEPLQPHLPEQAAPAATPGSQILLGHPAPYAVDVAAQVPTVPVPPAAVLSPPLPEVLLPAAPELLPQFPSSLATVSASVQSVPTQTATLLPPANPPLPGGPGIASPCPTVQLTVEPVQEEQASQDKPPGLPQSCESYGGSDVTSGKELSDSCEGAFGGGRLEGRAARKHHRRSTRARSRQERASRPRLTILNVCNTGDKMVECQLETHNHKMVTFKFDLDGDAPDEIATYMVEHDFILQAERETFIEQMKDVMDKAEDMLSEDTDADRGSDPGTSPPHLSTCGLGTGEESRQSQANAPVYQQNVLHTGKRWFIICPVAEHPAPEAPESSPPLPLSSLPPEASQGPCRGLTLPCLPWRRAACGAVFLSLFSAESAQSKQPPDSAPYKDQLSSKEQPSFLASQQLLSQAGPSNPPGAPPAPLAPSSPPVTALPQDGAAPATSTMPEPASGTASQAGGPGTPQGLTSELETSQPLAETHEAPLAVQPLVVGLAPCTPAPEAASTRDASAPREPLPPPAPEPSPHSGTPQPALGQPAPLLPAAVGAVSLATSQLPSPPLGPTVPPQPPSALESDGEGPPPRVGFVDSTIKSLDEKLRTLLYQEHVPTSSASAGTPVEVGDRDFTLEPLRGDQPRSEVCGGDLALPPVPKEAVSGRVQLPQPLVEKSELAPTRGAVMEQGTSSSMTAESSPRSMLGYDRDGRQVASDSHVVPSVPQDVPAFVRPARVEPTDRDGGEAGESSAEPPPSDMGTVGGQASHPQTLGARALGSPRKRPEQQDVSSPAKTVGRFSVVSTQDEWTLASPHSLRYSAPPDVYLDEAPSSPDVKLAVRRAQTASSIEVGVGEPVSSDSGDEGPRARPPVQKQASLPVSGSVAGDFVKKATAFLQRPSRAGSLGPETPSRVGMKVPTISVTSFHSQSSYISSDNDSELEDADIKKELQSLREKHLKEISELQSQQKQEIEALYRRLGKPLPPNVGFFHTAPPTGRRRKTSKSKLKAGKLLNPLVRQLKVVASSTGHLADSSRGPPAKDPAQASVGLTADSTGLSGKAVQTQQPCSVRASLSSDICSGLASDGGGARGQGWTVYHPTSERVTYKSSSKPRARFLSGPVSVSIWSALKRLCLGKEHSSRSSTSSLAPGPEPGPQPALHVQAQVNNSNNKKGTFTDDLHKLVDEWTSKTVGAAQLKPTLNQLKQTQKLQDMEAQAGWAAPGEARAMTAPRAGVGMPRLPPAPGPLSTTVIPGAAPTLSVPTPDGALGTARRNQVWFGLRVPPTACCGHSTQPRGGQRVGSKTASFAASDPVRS

[10] = tested on: Receptor tyrosine-protein kinase erbB-2 (Homo sapiens), P04626 [G778D]; assay: Inhibition of recombinant human ERBB2 G778D mutant (676 to end residues) assessed as residual activity at 1 uM using poly(Glu, Tyr) 4:1 as substrate at 40 mins in presence of [gamma-33ATP] by scintillation counting based radiometry assay relative to control
[11] = target: ALK tyrosine kinase receptor (Homo sapiens) (UniProt Q9UM73); assay: Inhibition of human ALK (1058 to end residues) assessed as residual activity at 1 uM using KKKSPGEYVNIEFG as substrate incubated for 40 mins in presence of [gamma-33ATP] by scintillation counting based radiometry assay relative to control
[12] = target: Serine/threonine-protein kinase ICK (Homo sapiens) (UniProt Q9UPZ9); assay: Inhibition of human ICK (1 to 312 residues) assessed as residual activity at 1 uM using RRRFRPASPLRGPPK as substrate after 40 mins by [gamma-33ATP] radiometric assay relative to control
[13] = tested on: Discoidin domain-containing receptor 2 (Homo sapiens), Q16832 [UNDEFINED MUTATION]; assay: Inhibition of recombinant human DDR2 S642A mutant (467 to end residues) assessed as residual activity at 1 uM using KKSRGDYMTMQIG as substrate at 40 mins in presence of [gamma-33ATP] by scintillation counting based radiometry assay relative to control
[14] = target: Serine/threonine-protein kinase mTOR (Homo sapiens) (UniProt P42345); assay: Inhibition of recombinant full-length human mTOR assessed as residual activity at 1 uM measured after 40 mins in presence of [gamma33P]ATP by scintillation counting method relative to control
[15] = target: SRSF protein kinase 2 (Homo sapiens) (UniProt P78362); assay: Inhibition of human SRPK2 (46 to end residues) assessed as residual activity at 1 uM using RSRSRSRSRSRSRSR as substrate measured after 40 mins in presence of [gamma33P]ATP by scintillation counting method relative to control
SRSF protein kinase 2 (Homo sapiens), sequence (P78362 whole entry, looked up): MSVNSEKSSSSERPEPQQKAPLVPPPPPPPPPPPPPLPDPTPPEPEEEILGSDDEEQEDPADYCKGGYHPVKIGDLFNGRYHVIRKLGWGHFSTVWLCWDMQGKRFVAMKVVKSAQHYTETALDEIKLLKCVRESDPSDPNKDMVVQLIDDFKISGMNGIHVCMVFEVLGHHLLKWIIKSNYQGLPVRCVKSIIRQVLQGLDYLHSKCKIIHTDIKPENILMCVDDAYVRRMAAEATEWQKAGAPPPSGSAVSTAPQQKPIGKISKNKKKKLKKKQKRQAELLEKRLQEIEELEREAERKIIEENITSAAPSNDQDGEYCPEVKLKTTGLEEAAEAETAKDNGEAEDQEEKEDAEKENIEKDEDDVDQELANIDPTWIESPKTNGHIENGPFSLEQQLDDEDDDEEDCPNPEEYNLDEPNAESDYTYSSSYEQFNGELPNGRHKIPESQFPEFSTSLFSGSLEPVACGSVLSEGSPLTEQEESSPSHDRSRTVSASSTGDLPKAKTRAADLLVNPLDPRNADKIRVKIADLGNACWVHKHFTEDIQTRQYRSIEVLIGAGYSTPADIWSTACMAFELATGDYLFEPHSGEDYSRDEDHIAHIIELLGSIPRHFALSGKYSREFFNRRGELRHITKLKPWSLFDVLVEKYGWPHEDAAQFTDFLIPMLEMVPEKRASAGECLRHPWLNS

[16] = target: Serine/threonine-protein kinase Sgk3 (Homo sapiens) (UniProt Q96BR1); assay: Inhibition of recombinant human SGK3 (119 to end residues) assessed as residual activity at 1 uM using GRPRTSSFAEGKK as substrate measured after 40 mins in presence of [gamma33P]ATP by scintillation counting method relative to control
Serine/threonine-protein kinase Sgk3 (Homo sapiens), sequence (Q96BR1 whole entry, the tested form may be a part): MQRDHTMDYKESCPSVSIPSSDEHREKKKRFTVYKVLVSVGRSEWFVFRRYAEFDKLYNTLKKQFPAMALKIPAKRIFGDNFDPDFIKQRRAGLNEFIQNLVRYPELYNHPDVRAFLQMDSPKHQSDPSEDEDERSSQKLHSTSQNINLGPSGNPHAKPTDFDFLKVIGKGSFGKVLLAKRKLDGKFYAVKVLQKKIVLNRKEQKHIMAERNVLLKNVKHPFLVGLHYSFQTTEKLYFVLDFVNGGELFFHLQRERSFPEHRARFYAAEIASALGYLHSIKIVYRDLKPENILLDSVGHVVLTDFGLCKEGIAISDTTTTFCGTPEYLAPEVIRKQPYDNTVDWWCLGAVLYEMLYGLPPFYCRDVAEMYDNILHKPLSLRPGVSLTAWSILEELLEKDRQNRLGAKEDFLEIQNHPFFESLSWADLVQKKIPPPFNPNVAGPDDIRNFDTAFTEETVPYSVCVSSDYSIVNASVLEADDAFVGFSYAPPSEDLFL

[17] = target: Mitogen-activated protein kinase kinase kinase 7 (Homo sapiens) (UniProt O43318); assay: Inhibition of human TAK1 (1 to 303 residues) assessed as residual activity at 1 uM using casein as substrate measured after 40 mins in presence of [gamma33P]ATP by scintillation counting method relative to control
Mitogen-activated protein kinase kinase kinase 7 (Homo sapiens), sequence (O43318 whole entry, the tested form may be a part, canonical isoform): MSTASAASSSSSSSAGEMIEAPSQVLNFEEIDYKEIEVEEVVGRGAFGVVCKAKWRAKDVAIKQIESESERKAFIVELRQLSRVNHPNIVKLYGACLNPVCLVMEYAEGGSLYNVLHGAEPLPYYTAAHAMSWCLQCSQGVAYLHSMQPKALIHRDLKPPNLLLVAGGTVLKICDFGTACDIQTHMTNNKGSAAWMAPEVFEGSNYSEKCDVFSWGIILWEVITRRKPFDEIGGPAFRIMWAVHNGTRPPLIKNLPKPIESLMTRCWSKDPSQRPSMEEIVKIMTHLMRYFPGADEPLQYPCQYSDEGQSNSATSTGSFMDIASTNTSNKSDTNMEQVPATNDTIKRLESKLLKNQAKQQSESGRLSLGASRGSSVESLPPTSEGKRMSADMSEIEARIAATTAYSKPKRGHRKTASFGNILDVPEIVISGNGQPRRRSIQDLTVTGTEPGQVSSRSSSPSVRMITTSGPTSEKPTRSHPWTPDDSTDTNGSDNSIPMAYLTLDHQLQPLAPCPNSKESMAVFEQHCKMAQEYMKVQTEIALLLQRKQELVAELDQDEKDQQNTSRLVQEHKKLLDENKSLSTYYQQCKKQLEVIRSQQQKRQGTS

[18] = tested on: Phosphorylase b kinase gamma catalytic chain, liver/testis isoform (Homo sapiens), P15735 [F290L]; assay: Inhibition of recombinant human PhKgamma2 F290L mutant (1 to 301 residues) assessed as residual activity at 1 uM using KKLNRTLSFAEPG as substrate measured after 40 mins in presence of [gamma33P]ATP by scintillation counting method relative to control
Phosphorylase b kinase gamma catalytic chain, liver/testis isoform (Homo sapiens), P15735 [F290L], sequence (P15735 whole entry F290L, the tested form may be a part, canonical isoform): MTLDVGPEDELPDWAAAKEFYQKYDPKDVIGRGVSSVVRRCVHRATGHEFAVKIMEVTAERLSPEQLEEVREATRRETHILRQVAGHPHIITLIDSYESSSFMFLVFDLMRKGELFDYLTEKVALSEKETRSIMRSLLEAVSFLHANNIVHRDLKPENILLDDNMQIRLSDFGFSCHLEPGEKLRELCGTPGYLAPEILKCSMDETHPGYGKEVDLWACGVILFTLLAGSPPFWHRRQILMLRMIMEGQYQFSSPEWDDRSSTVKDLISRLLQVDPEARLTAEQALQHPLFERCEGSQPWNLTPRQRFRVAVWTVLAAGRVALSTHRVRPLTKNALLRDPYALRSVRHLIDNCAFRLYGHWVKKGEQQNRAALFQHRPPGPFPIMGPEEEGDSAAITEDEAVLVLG

[19] = tested on: Dual specificity protein kinase TTK (Homo sapiens), P33981 [S389A]; assay: Inhibition of recombinant full-length human TTK S389A mutant at 1 uM assessed as residual activity at 1 uM using MBP as substrate measured after 40 mins in presence of [gamma33P]ATP by scintillation counting method relative to control
[20] = tested on: PI3-kinase p110-alpha/p85-alpha (Homo sapiens), P27986+P42336 [E542K]; assay: Inhibition of recombinant full-length human PI3K p110alpha E542K mutant/p85alpha assessed as residual activity at 1 uM assessed as residual activity at 1 uM using phosphatidylinositol-4, 5-bisphosphate as substrate incubated for 40 mins in presence of [gamma33P]ATP by scintillation counting based radiometry assay relative to control; format: protein-complex assay
[21] = target: DNA-dependent protein kinase catalytic subunit (Homo sapiens) (UniProt P78527); assay: Inhibition of recombinant full-length human DNA-PK at 1 uM assessed as residual activity at 1 uM using GST-cMyc-p53 as substrate measured after 40 mins by fluorescence assay

C=CCOC(=O)c1cc(-c2ccc(/C=C3/NC(=S)NC3=O)o2)ccc1Cl
Activity [1]: 98% | Activity [2]: 98% | Activity [3]: 88% | Activity [4]: 101% | Activity [5]: 98% | Activity [6]: 85% | Activity [7]: 111% | Activity [8]: 92% | Activity [9]: 85% | Activity [10]: 118% | Activity [11]: 90% | Activity [12]: 28% | Activity [13]: 105% | Activity [14]: 88% | Activity [15]: 99% | Activity [16]: 96% | Activity [17]: 100% | Activity [18]: 104% | Activity [19]: 92% | Activity [20]: 91% | Activity [21]: 107%

N=C1NC(=O)/C(=C\c2ccc(-c3cccc([N+](=O)[O-])c3)o2)S1
Activity [1]: 107% | Activity [2]: 103% | Activity [3]: 80% | Activity [4]: 100% | Activity [5]: 87% | Activity [6]: 92% | Activity [7]: 105% | Activity [8]: 74% | Activity [9]: 88% | Activity [10]: 103% | Activity [11]: 98% | Activity [12]: 18% | Activity [13]: 108% | Activity [14]: 95% | Activity [15]: 82% | Activity [16]: 109% | Activity [17]: 92% | Activity [18]: 107% | Activity [19]: 98% | Activity [20]: 99% | Activity [21]: 93%
